Where two headings read alike, the source gives them in different places.
Columns and labels:
[1] = biological target: T1, Myceliophthora thermophila laccase (lcc-1; MtL), wild type (pRaMB17), SEQ ID NO:27 (Thermothelomyces thermophilus, UniProt G2QG31); assay: Syringaldazine and ABTS oxidase kinetics (Km, kcat), MtL wt; details: 8 mM MES-NaOH buffer, pH 5.3, spectroscopic
T1 sequence (G2QG31 with tags, fused parts or gaps INS108NSII/R109G/T291C/S323N/P398A/P430A/T522S/A533S/H588R): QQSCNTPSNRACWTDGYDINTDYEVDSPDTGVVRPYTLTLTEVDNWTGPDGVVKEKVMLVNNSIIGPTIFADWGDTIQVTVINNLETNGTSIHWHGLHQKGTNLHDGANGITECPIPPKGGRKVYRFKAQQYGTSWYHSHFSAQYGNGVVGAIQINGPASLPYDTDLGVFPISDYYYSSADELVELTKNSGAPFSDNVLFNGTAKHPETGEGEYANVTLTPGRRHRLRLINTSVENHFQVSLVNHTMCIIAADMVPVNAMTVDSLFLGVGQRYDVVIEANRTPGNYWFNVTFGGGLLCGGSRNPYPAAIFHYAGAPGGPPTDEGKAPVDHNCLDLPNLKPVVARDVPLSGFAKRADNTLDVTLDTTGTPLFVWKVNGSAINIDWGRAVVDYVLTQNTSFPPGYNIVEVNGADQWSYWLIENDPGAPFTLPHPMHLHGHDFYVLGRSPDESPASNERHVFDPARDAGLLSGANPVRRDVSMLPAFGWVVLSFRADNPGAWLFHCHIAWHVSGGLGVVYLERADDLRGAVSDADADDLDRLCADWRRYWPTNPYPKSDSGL
Procedure: (§1) The molecular weights of the mature laccases are used to calculate both extinction coefficients and turnover numbers. The molecular weights are determined from the deduced amino acid sequences of the DNA sequences (FIG. 6: SEQ ID NOS:24 and 25, and FIG. 7: SEQ ID NOS:26 and 27). Protein concentrations (expressed as subunits) are measured based on the extinction coefficients determined by quantitative amino acid analysis.
(§2) Km and kcat are obtained from the initial rate (v), enzyme concentration (E), and substrate concentration (S) in accordance to the equation v=kcat ES/(Km +S) by non-linear regression fitting using the Prizm program (GraphPad, San Diego, Calif.). […] The O2 concentration in air-saturated buffer solution is assumed as the same in plain water (0.28 mM).

[2] = biological target: T2, Rhizoctonia solani laccase isozyme 4 (rsl4; RsL), wild type (pJiWa59), SEQ ID NO:25 (Thanatephorus cucumeris, UniProt Q02081); assay: Syringaldazine and ABTS oxidase kinetics (Km, kcat), RsL wt; type: biochemical; details: 8 mM MES-NaOH buffer, pH 5.3, spectroscopic
T2 sequence (Q02081 21-531): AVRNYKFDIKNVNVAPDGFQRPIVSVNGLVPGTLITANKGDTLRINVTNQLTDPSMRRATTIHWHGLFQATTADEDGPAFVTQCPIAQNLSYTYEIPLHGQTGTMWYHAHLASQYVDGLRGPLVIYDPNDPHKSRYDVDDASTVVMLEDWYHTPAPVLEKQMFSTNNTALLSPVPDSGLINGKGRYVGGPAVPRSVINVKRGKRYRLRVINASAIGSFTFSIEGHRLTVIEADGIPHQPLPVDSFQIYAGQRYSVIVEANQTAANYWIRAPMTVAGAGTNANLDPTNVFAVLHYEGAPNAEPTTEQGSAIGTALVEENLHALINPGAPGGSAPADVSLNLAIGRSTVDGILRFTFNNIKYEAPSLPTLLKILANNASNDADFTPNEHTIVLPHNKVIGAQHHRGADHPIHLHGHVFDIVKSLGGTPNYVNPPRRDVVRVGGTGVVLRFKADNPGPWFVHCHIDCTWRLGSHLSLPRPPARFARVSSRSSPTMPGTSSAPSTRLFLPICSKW
Procedure: as §1, §2

[3] = biological target: Rhizoctonia solani laccase isozyme 4 (RsL) mutant "M" L470F (pJiWa86) (Thanatephorus cucumeris, UniProt Q02081); type: biochemical
Procedure: as §1, §2

[4] = biological target: Myceliophthora thermophila laccase (MtL) mutant "M" L513F (pRaMB17M) (Thermothelomyces thermophilus, UniProt G2QG31, form not given/L556F); type: biochemical
Procedure: as §1, §2

[5] = biological target: Rhizoctonia solani laccase isozyme 4 (RsL) mutant "T" L466V/E467S/A468G (pJiWa85) (Thanatephorus cucumeris, UniProt Q02081); type: biochemical
Procedure: as §1, §2

[6] = biological target: Myceliophthora thermophila laccase (MtL) mutant "T" V509L/S510E/G511A (pBANe22T) (Thermothelomyces thermophilus, UniProt G2QG31, G554A/S553E/V552L); type: biochemical
Procedure: as §1, §2

[7] = substrate: CCn1c(=NN=c2sc3cc(S(=O)(=O)O)ccc3n2CC)sc2cc(S(=O)(=O)O)ccc21; assay: purified protein, by the assay type; details: 8 mM MES-NaOH buffer, pH 5.3, spectroscopic
[8] = substrate: COc1cc(C=NN=Cc2cc(OC)c(O)c(OC)c2)cc(OC)c1O; assay: purified protein, by the assay type; details: 8 mM MES-NaOH buffer, pH 5.3, spectroscopic
[9] = 8 mM MES-NaOH buffer, pH 5.3, spectroscopic
[10] = read-out: Km (ABTS), 8 mM MES-NaOH buffer, pH 5.3, spectroscopic
[11] = read-out: Km (SGZ), 8 mM MES-NaOH buffer, pH 5.3, spectroscopic

`CCn1c(=NN=c2sc3cc(S(=O)(=O)O)ccc3n2CC)sc2cc(S(=O)(=O)O)ccc21` [ABTS, 2,2'-azinobis(3-ethylbenzthiazoline-6-sulfonic acid)] was tested, and the “kcat (ABTS)” value [1] was 63.33 ± 5 s⁻¹, the “kcat (ABTS)” value [2] was 41.67 ± 1.67 s⁻¹ and the “kcat (ABTS)” value [3, 9] was 12.7 ± 0.5 s⁻¹. For the same molecule, the Km [3, 10] was 125 ± 13 µM, the “kcat (ABTS)” value [4, 9] was 30 ± 1.67 s⁻¹ and the Km [4, 10] was 43 ± 3 µM. For the same molecule, the “kcat (ABTS)” value [5, 9] was 0.333 ± 0.017 s⁻¹, the Km [5, 10] was 60 ± 4 µM and the “kcat (ABTS)” value [6, 9] was 8.83 ± 0.333 s⁻¹.

`COc1cc(C=NN=Cc2cc(OC)c(O)c(OC)c2)cc(OC)c1O` [SGZ, syringaldazine] was tested, and the “kcat (SGZ)” value [2] was 9.17 ± 0.667 s⁻¹, the “kcat (SGZ)” value [3, 9] was 4.25 ± 0.183 s⁻¹ and the Km [3, 11] was 35 ± 4 µM. The “kcat (SGZ)” value [4, 9] was 55 ± 1.67 s⁻¹, the Km [4, 11] was 1.8 ± 0.2 µM and the “kcat (SGZ)” value [5, 9] was 0.0183 ± 0.0017 s⁻¹. The Km [5, 11] was 3.9 ± 0.3 µM, the “kcat (SGZ)” value [6, 9] was 6 ± 0.333 s⁻¹ and the Km [6, 11] was 0.9 ± 0.2 µM.

B1: Rhizoctonia solani laccase isozyme 4 (rsl4; RsL), wild type (pJiWa59), SEQ ID NO:25 (Thanatephorus cucumeris) (protein)
chain: AVRNYKFDIKNVNVAPDGFQRPIVSVNGLVPGTLITANKGDTLRINVTNQLTDPSMRRATTIHWHGLFQATTADEDGPAFVTQCPIAQNLSYTYEIPLHGQTGTMWYHAHLASQYVDGLRGPLVIYDPNDPHKSRYDVDDASTVVMLEDWYHTPAPVLEKQMFSTNNTALLSPVPDSGLINGKGRYVGGPAVPRSVINVKRGKRYRLRVINASAIGSFTFSIEGHRLTVIEADGIPHQPLPVDSFQIYAGQRYSVIVEANQTAANYWIRAPMTVAGAGTNANLDPTNVFAVLHYEGAPNAEPTTEQGSAIGTALVEENLHALINPGAPGGSAPADVSLNLAIGRSTVDGILRFTFNNIKYEAPSLPTLLKILANNASNDADFTPNEHTIVLPHNKVIGAQHHRGADHPIHLHGHVFDIVKSLGGTPNYVNPPRRDVVRVGGTGVVLRFKADNPGPWFVHCHIDCTWRLGSHLSLPRPPARFARVSSRSSPTMPGTSSAPSTRLFLPICSKW
B1 gave a Km ([7]; other: RsL wt) of 52 ± 6 µM and a Km ([8]; other: RsL wt) of 28 ± 4 µM.

B2: Myceliophthora thermophila laccase (lcc-1; MtL), wild type (pRaMB17), SEQ ID NO:27 (Thermothelomyces thermophilus ATCC 42464) (protein)
chain: QQSCNTPSNRACWTDGYDINTDYEVDSPDTGVVRPYTLTLTEVDNWTGPDGVVKEKVMLVNNSIIGPTIFADWGDTIQVTVINNLETNGTSIHWHGLHQKGTNLHDGANGITECPIPPKGGRKVYRFKAQQYGTSWYHSHFSAQYGNGVVGAIQINGPASLPYDTDLGVFPISDYYYSSADELVELTKNSGAPFSDNVLFNGTAKHPETGEGEYANVTLTPGRRHRLRLINTSVENHFQVSLVNHTMCIIAADMVPVNAMTVDSLFLGVGQRYDVVIEANRTPGNYWFNVTFGGGLLCGGSRNPYPAAIFHYAGAPGGPPTDEGKAPVDHNCLDLPNLKPVVARDVPLSGFAKRADNTLDVTLDTTGTPLFVWKVNGSAINIDWGRAVVDYVLTQNTSFPPGYNIVEVNGADQWSYWLIENDPGAPFTLPHPMHLHGHDFYVLGRSPDESPASNERHVFDPARDAGLLSGANPVRRDVSMLPAFGWVVLSFRADNPGAWLFHCHIAWHVSGGLGVVYLERADDLRGAVSDADADDLDRLCADWRRYWPTNPYPKSDSGL
Work on B2 yielded a Km ([7]; other: MtL wt) of 110 ± 20 µM and a Km ([8]; other: MtL wt) of 1.4 ± 0.2 µM.

Reference: patent US5972670A, “Blue copper oxidase mutants with enhanced activity” (priority 1998, dated 1999)
